{"source": "patent US5112947A", "about": "“Peptides, and antidementia agents containing the same” (Nippon Chemiphar Co., Ltd., priority 1989, dated 1992)", "note": "Non-standard residues stand in square brackets, D forms with d. Residues, ends and D or L forms follow the SMILES beside them. *: point of attachment. Cys(free,S-linked) = N[C@@H](CS*)C(=O)O; pGlu = O=C1CC[C@@H](C(=O)O)N1; Aze = O=C(O)[C@@H]1CCN1"}
{"tested_on": "male Wistar rats", "assay": "one-trial passive avoidance test: improvement of experimental retrograde amnesia by cycloheximide", "type": "in vivo, rat", "details": "dose 0.1 ng/kg, given 1 h before electro-shock (0.5 mA); cycloheximide 2.7 to 3.0 mg/kg s.c.; retention tested at 48 hours; control = cycloheximide alone", "method": "(§1) 221, pp. […], 1983. […] At 48 hours after the administration was made, memory retention of the rats were tested.", "units": {"Effect (%): ratio of response latent period of each group to that of the control groups": "%"}}
{"smiles": "N=C(N)NCCC[C@H](NC(=O)[C@@H]1CCCN1C(=O)[C@H](CO)NC(=O)[C@H](CC(N)=O)NC(=O)[C@@H]1CCC(=O)N1)C(=O)NCC(N)=O", "note": "[Example 21, pGlu-Asn-Ser-Pro-Arg-Gly-NH2 acetate] (HELM PEPTIDE1{[Glp].N.S.P.R.G.[am]}$$$$V2.0)", "Effect (%): ratio of response latent period of each group to that of the control groups": 353}
{"smiles": "N=C(N)NCCC[C@H](NC(=O)[C@@H]1CCCN1C(=O)[C@H](CO)NC(=O)[C@@H]1CCCN1)C(=O)O", "note": "[Example 27, H-Pro-Ser-Pro-Arg-OH acetate] (H-PSPR-OH)", "Effect (%): ratio of response latent period of each group to that of the control groups": 213}
{"tested_on": "male Wistar rats", "assay": "one-trial passive avoidance test: improvement of experimental retrograde amnesia by cycloheximide", "type": "in vivo, rat", "details": "dose 1 ng/kg, given 1 h before electro-shock (0.5 mA); cycloheximide 2.7 to 3.0 mg/kg s.c.; retention tested at 48 hours; control = cycloheximide alone", "method": "as §1", "units": {"Effect (%): ratio of response latent period of each group to that of the control groups": "%"}}
{"smiles": "N=C(N)NCCC[C@H](NC(=O)[C@@H]1CCN1C(=O)[C@H](CSSC[C@H](N)C(=O)O)NC(=O)[C@H](CC(N)=O)NC(=O)[C@@H]1CCC(=O)N1)C(=O)NCC(N)=O", "note": "[Example 6] ([pGlu]NC(Cys(free,S-linked))[Aze]RG-NH2)", "Effect (%): ratio of response latent period of each group to that of the control groups": 239}
{"smiles": "C[C@H](NC(=O)[C@@H](N)CC(N)=O)C(=O)N1CCC[C@H]1C(=O)N[C@@H](CCCNC(=N)N)C(=O)O", "note": "[Example 9, H-Asn-Ala-Pro-Arg-OH acetate] (H-NAPR-OH)", "Effect (%): ratio of response latent period of each group to that of the control groups": 460}
{"smiles": "N=C(N)NCCC[C@H](NC(=O)[C@@H]1CCCCN1C(=O)[C@H](CO)NC(=O)[C@@H](N)CC(N)=O)C(=O)O", "note": "[Example 12, H-Asn Ser-Pip-Arg-OH acetate] (HELM PEPTIDE1{N.S.[O=C([C@@H]1CCCCN1[*:1])[*:2]].R}$$$$V2.0)", "Effect (%): ratio of response latent period of each group to that of the control groups": 235}
{"smiles": "N=C(N)NCCC[C@H](NC(=O)[C@@H]1CCCN1C(=O)[C@H](CSSC[C@H](N)C(=O)O)NC(=O)[C@@H]1CCCN1)C(=O)NCC(N)=O", "note": "[Example 17] (H-PC(Cys(free,S-linked))PRG-NH2)", "Effect (%): ratio of response latent period of each group to that of the control groups": 365}
